pEC50, pIC50: −log10 of the molar value. Where “and” joins values, the source holds several entries; their conditions need not be identical. Equal entries are not always repeated. Where two headings read alike, the source gives them in different places.
Experiments:
[1] = test system: NQO1 activation in BEAS-2B cells; assay: BEAS-2B cellular MTT assay of NQO1 activation, 0% HSA; format: cell-based
Procedure, shortened: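 For the 0% HSA condition, cells were seeded into collagen plates in HSA-free medium. Culture was BEAS-2B in BEBM plus BEGM SingleQuots lacking GA-1000, held under 70% confluence, at a seeding density reaching 95-100% confluence by 48 h.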

[2] = test system: NQO1 activation in BEAS-2B cells; assay: BEAS-2B cellular MTT assay of NQO1 activation, 0.3% HSA; format: cell-based
Procedure, shortened: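 MTT read-out in BEAS-2B cells grown in BEBM with SingleQuots, no GA-1000, kept below 70% confluence; plates coated with collagen, with 0.3% or 0% HSA medium, seeded to 95-100% confluency at 48 h, 37 °C, 5% CO2.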

[3] = target: HIS-Keap1 full length / Biotin-Nrf2 (16-mer) (Homo sapiens, UniProt Q14145); assay: biochemical
[4] = the molecule shown is the open-chain precursor; rcm bond; 21-membered ring; Grubbs catalyst (General procedure 15)
[5] = the molecule shown is the open-chain precursor
[6] = test system: genes of interest (GOI) in HUDEP cells; assay: Gene expression by qPCR in HUDEP cells treated with compound titration; format: cell-based; details: HbG, read-out: HUDEP HbG EC50 (μM) (Num)
Description: Evaluation of the gene expression by qPCR in HUDEP cells treated with titration of novel compounds. HUDEP Compound Treatment Method
HUDEP cells were plated in 96-well plates, @ 25,000 cells per well in 200 μL of maintenance media. Compounds were added in a 10-point dose response starting at 10 uM with 1/3 dilution scheme using the HP digital diluter. A DMSO control was run to all for normalization of DMSO. The compounds were incubated for 48 hours in 37° C. incubator with 5% CO2. Post incubation, total RNA was isolated using Cells to Ct kit and gene expression was evaluated for genes of interest (GOI) after normalizing to a housekeeping gene. The ΔΔCT was calculated and compared to the DMSO control.
Cell Lysis, Isolation and Gene Expression Materials
Cells to Ct is a kit offered by Applied Biosystems. mRNA prepared using this kit can be directly used for cDNA conversion followed subsequently with qPCR for gene expression analysis
Cell lysis and preparation of RNA: For suspension cells such as HUDEPs, 10,000-100,000 cells (as per kit guidelines) were used for making lysates. The plate was centrifuged at 1500 rpm for 5 mins and the cells were pelleted. Spent medium was removed using a multi-channel pipette. 200 μL ice-cold PBS was added to all treated wells, followed by centrifuging at 1500 rpm for 5 mins 195 μL cold PBS were aspirated from all treatment wells without disturbing the cell monolayer.
To prepare the Cells to CT lysis solution, 49.5 μL of the Cells to CT Lysis Buffer and 0.5 μL/well DNase I (returned DNase I reagent to the −20 C freezer immediately after pipetting) were added to each well. The Cells to CT lysis solution was pipetted to a reservoir and 50 μL were added per well to the treated wells. (Mix 35 μL 5 times without creating bubbles and set timer to 5 mins. At the end of the 5-minute incubation, add 5 μL of stop solution with a multichannel pipet touching the tip to the liquid. Then mix 35 μL 5 times without creating bubbles and set timer to 2 mins.)
The plates were sealed and stored at −20° C. until cDNA synthesis. Optionally they were placed on ice to allow for directly moving to the cDNA synthesis.
cDNA Synthesis: The cell lysate plates were thawed on ice if necessary and mixed 4 times with a multi-channel pipette. 4 μL of Superscript IV VILO and 6 μL of Nuclease free water were combined together for each sample. The mixture was poured into a reservoir and 10 μL was pipetted into each well of a 96-well PCR plate. 10 μL of lysate prepared previously was added and mixed 5 times. The wells were completely sealed, especially around the edges, with plate sealing film using the plate sealing paddle. The PCR plate was centrifuged to pull down the sample to the bottom of the wells. The lysate plate was sealed and returned to the −20° C. freezer as soon as possible. The PCR plate was placed in the thermal cycler and run at 20 μL at 25° C. for 10 minutes, 50° C. for 10 minutes, 85° C. for 5 minutes and then 4° C.
Real Time PCR: The cDNA plate was thawed at room temperature when necessary and 30 μL nuclease free water was added to each cell lysate, followed by mixing, up and down 4 times with a pipette. The primers were thawed for the genes of interest—both housekeeping gene (HKG) and gene(s) of interest (GOI).
A template was prepared and the number of wells needed for each gene of interest (GOI) calculated. Each sample required 2 μL of cDNA, 5 μL of Taqman Master Mix, 0.16667 μL of GOI at 60 times concentration, 0.16667 μL of HKG at 60 times concentration and 2.6667 μL of nuclease free water. If genes at 20 times concentration were used, then 2 μL cDNA, 5 μL Taqman Master Mix, 0.5 GOI, 0.5 μL HKG and 2 μL of nuclease free water were combined for each well.
After calculating the number of wells for each gene, GOI, HKG, Taqman Master Mix and Nuclease free water were combined. 8 μL were pipetted in to each well of the 384-well PCR plate as detailed in the template. […]

[7] = Homo sapiens, serum free, read-out: BEAS EC50 (nM) serum free
[8] = serum free, read-out: BEAS EC50 (nM) serum free
[9] = Homo sapiens, BEAS+, read-out: BEAS+ EC50
[10] = BEAS+ W, read-out: BEAS+ W EC50
[11] = Homo sapiens, BEAS+ W, read-out: BEAS+ W EC50
[12] = rcm bond, 22-membered ring, Grubbs catalyst (General procedure 7)

HIS-Keap1 full length / Biotin-Nrf2 (16-mer), sequence (Q14145 whole entry): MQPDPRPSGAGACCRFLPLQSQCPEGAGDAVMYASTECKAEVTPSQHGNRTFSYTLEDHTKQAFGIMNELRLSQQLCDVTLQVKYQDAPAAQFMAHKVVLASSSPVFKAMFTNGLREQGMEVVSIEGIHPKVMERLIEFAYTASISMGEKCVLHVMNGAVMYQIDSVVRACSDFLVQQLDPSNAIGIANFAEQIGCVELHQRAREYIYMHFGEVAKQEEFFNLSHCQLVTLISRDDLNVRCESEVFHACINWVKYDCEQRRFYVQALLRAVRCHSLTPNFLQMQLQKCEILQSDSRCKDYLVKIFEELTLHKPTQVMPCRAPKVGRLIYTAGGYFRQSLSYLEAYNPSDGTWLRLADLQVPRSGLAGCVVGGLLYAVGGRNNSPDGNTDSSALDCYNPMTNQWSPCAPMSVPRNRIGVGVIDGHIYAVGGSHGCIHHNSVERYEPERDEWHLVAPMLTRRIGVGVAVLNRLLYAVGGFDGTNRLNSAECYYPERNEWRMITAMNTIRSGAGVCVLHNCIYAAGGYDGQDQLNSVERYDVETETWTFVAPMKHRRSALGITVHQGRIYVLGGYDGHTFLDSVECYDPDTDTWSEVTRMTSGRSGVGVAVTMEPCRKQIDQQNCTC

`O=C(O)CC1c2ccc(nc2)OCCCCOc2ccc(cc2)C(=O)N2CCc3ccc1cc3C2` (centres unmarked) [Compound 211, 2-(4-oxo-31,32,33,34-tetrahydro-6,11-dioxa-3(7,2)-isoquinolina-1(5,2)-pyridina-5(1,4)-benzenacycloundecaphane-2-yl)acetic Acid] showed a ring closure, yield of all isomers (from COC(=O)CC(c1ccc(OCCCCOc2ccc(C(=O)OC(C)(C)C)cc2)nc1)c1ccc2c(c1)CN(C(=O)OC(C)(C)C)CC2, amide bond, 3 steps) of 7.8%, an EC50 [1, 7] of 829 nM and an EC50 [1, 8] of 574 nM. For the same compound, the pEC50 ([2]; BEAS+, read-out: BEAS+ EC50) was 5.76, the pEC50 [2, 9] was 5.66 and the pIC50 [3] was 7.97 and 7.61.

With “amide of 7-(3-methoxy-3-oxo-1-(2-(pent-4-en-1-yloxy)pyrimidin-5-yl)propyl)-1,2,3,4-tetrahydroisoquinolin-2-ium chloride with 4-vinylbenzoic acid” the ring closure, crude yield [4] was 20%.

For “free amino acid (NH tetrahydroisoquinoline, CO2H benzoic acid) from deprotection of Mitsunobu di-ether of tert-butyl 7-(3-(benzyloxy)-1-(1-(3-(2-hydroxyethoxy)propyl)-4-methyl-1H-benzo[d][1,2,3]triazol-5-yl)-3-oxopropyl)-3,4-dihydroisoquinoline-2(1H)-carboxylate with tert-butyl 2,6-difluoro-4-hydroxybenzoate”, the ring closure, isolated yield ([5]; amide bond, 23-membered ring, HATU/Et3N) was 30%.

Work on `O=C(O)CC1c2ccc3c(c2)CN(CC3)C(=O)c2ccc(c3ccccc23)OCCCCCCn2nnc3cc1ccc32` (centres unmarked) [Compound 338] yielded an EC50 [1, 7] of 25.3 nM, a pEC50 [2, 9] of 7.56 and an EC50 [6] of 0.667 µM. The pIC50 [3] was 9.70 and 10.00.

With `Cc1c2ccc3c1nnn3CCCCCCc1ccc(cc1)C(=O)N1CCc3ccc(cc3C1)[C@H]2[C@@H](C)C(=O)O` [Compound 129] the EC50 [1, 7] was 1360 nM, the EC50 [1, 8] was 1220 nM and the pEC50 [2, 10] was 8.66 and 8.80 and 8.72. The pEC50 ([2]; BEAS+, read-out: BEAS+ EC50) was 5.51, the pEC50 [2, 11] was 8.70 and the pEC50 [2, 9] was 5.66. For the same compound, the EC50 [6] was 0.013 µM.

“amide of methyl 3-(1-(but-3-en-1-yl)-1H-benzo[d][1,2,3]triazol-5-yl)-3-(1,2,3,4-tetrahydroisoquinolin-7-yl)propanoate with 4-(allyloxy)benzoic acid” gave a ring closure, isolated yield [5, 12] of 47%.

Work on `Cc1c2ccc3c1nnn3CCCCCCOc1ccc(cc1)C(=O)N1CCc3ccc(cc3C1)[C@@H]2[C@@H](C)C(=O)O` [Compound 107] yielded an EC50 ([1]; Homo sapiens, Serum Free W, read-out: BEAS EC50 (nM) Serum Free W) of 3.6 nM, an EC50 [1, 7] of 0.6 nM and an EC50 ([1]; Serum Free W, read-out: BEAS EC50 (nM) Serum Free W) of 4.1 nM. The EC50 [1, 8] was 0.4 nM, the pEC50 [2, 10] was 7.49 and the pEC50 ([2]; BEAS+, read-out: BEAS+ EC50) was 8.62. It also gave a pEC50 [2, 11] of 7.78, a pEC50 [2, 9] of 8.49 and an EC50 [6] of 0.038 µM. It also gave a pIC50 [3] of 8.80.

Compound “amide of methyl 3-(4-methyl-1-(pent-4-en-1-yl)-1H-benzo[d][1,2,3]triazol-5-yl)-3-(1,2,3,4-tetrahydroisoquinolin-7-yl)propanoate with 1-methyl-5-vinyl-1H-indole-3-carboxylic acid” has a ring closure, isolated yield ([5]; rcm bond, 21-membered ring, Grubbs catalyst (General procedure 7)) of 65%.

`COC(=O)CC1c2ccc3c(c2)CN(CC3)C(=O)c2ccc(cc2)C=CCCCOc2cc(C)c1cn2` (centres unmarked) gave a ring closure, yield of all isomers (from C=CCCCOc1cc(C)c(C(CC(=O)OC)c2ccc3c(c2)CN(C(=O)c2ccc(C=C)cc2)CC3)cn1, rcm bond, Grubbs catalyst) of 64%.

In the case of `O=C(O)CC1c2ccc3c(c2)CN(CC3)C(=O)c2c(F)cc(cc2F)CCCCCn2nnc3cc1ccc32` (centres unmarked) [Compound 241], the EC50 [6] was 0.095 µM and the pIC50 [3] was 9.40.

In the case of “amide of rel-methyl (S)-3-(4-methyl-1-(pent-4-en-1-yl)-1H-benzo[d][1,2,3]triazol-5-yl)-3-(1,2,3,4-tetrahydroisoquinolin-7-yl)propanoate with 4-allylbenzoic acid”, the ring closure, isolated yield [5, 12] was 99%.

`COC(=O)C[C@@H]1c2ccc3c(c2)CN(CC3)C(=O)c2ccc(cc2)C=CCCCCn2cnc3c(C)c1ccc32` showed a ring closure, yield of all isomers (from C=CCCCCn1cnc2c(C)c([C@H](CC(=O)OC)c3ccc4c(c3)CN(C(=O)c3ccc(C=C)cc3)CC4)ccc21, rcm bond, Grubbs 2nd generation catalyst, 48.0 h) of 27%.

In the case of `Cc1c2ccc3c1nnn3CCCCCCc1ccc(cc1)C(=O)N1CCc3ccc(cc3C1)[C@@H]2CC(=O)O` (single isomer, unassigned) [Compound 223], the EC50 [6] was 0.015 µM and the IC50 [3] was 0.5 nM and 0.9 nM and 1.2 nM (2×).

For “amide of rel-methyl (R)-3-(1-(hex-5-en-1-yl)-4-methyl-1H-benzo[d]imidazol-5-yl)-3-(1,2,3,4-tetrahydroisoquinolin-7-yl)propanoate with 4-vinylbenzoic acid”, the ring closure, isolated yield ([5]; rcm bond, 22-membered ring, Grubbs II (extra portion)) was 27%.

In the case of `Cc1cc2ccc1C(=O)N1CCc3ccc(cc3C1)[C@@H](CC(=O)O)c1ccc3c(nnn3CCCCCC2)c1C` [Compound 240], the EC50 [1, 7] was 1.1 nM, the EC50 [1, 8] was 0.6 nM and the pEC50 ([2]; BEAS+, read-out: BEAS+ EC50) was 9.22. It also gave a pEC50 [2, 9] of 9.00 and an EC50 [6] of 0.018 µM.

“amide of methyl 3-(4-methyl-6-(pent-4-en-1-yloxy)pyridin-3-yl)-3-(1,2,3,4-tetrahydroisoquinolin-7-yl)propanoate with 4-vinylbenzoic acid” showed a ring closure, isolated yield ([5]; rcm bond, 21-membered ring, Grubbs catalyst (General procedure 15)) of 64%.

For `COC(=O)C[C@H]1c2ccc3c(c2)CN(CC3)C(=O)c2ccc(cc2)CC=CCCCn2nnc3c(C)c1ccc32`, the ring closure, yield of all isomers (from C=CCCCn1nnc2c(C)c([C@@H](CC(=O)OC)c3ccc4c(c3)CN(C(=O)c3ccc(CC=C)cc3)CC4)ccc21, rcm bond, Grubbs catalyst) was 99%.

In the case of `C[C@@H](C(=O)O)[C@@H]1c2ccc(nc2)OCCCCCc2cc(F)c(c(F)c2)C(=O)N2CCc3ccc1cc3C2` [Compound 164], the EC50 [1, 7] was 16 nM, the EC50 [1, 8] was 20.3 nM and the pEC50 ([2]; BEAS+, read-out: BEAS+ EC50) was 7.47. For the same compound, the pEC50 [2, 9] was 7.49 and the pIC50 [3] was 7.29 and 7.23.

`COc1cc2ccc1CCCCCCn1nnc3c(C)c(ccc31)C(CC(=O)O)c1ccc3c(c1)CN(CC3)C2=O` (centres unmarked) [Compound 189] gave an EC50 [1, 7] of 4.4 nM, an EC50 [1, 8] of 6 nM and a pEC50 ([2]; BEAS+, read-out: BEAS+ EC50) of 7.80. The pEC50 [2, 9] was 7.73 and the pIC50 [3] was 7.64 and 7.63.

With `Cc1cc2ccc1C(=O)N1CCc3ccc(cc3C1)C(CC(=O)O)c1ccc(nc1)OCCCCC2` (centres unmarked) [Compound 154] the EC50 [1, 7] was 16.6 nM, the EC50 [1, 8] was 13.6 nM and the pEC50 ([2]; BEAS+, read-out: BEAS+ EC50) was 7.45. The pEC50 [2, 9] was 7.42 and the pIC50 [3] was 8.48 and 8.46.

`O=C(O)CC1c2ccc3c(c2)CN(CC3)C(=O)c2ccc(cc2F)CCCCCn2nnc3c(Cl)c1ccc32` (centres unmarked) [Compound 145] showed an EC50 [1, 7] of 0.6 nM, an EC50 [1, 8] of 0.5 nM and a pEC50 ([2]; BEAS+, read-out: BEAS+ EC50) of 9.15. The pEC50 [2, 9] was 9.40 and the pIC50 [3] was 10.00.

In the case of `Cc1c2ccc3c1nnn3CCCCCCn1ccc3ccc(cc31)C(=O)N1CCc3ccc(cc3C1)C2CC(=O)O` (centres unmarked) [Compound 394], the EC50 [1, 7] was 3100 nM, the EC50 [1, 8] was 2900 nM and the pEC50 ([2]; BEAS+, read-out: BEAS+ EC50) was 5.54. The pEC50 [2, 9] was 5.57 and the pIC50 [3] was 8.05 and 7.98.
